Structures can show the parent of a compound that is named as a salt.
Assays:
human PHD2 [1] = molecular target: T1, human PHD2 (Homo sapiens (Human), UniProt Q9GZT9); experiment: Test 2: human PHD2 inhibitory activity, fluorescence polarization assay of HIF-1α peptide proline hydroxylation; type: biochemical; details: for inhibition at 1 µM: read-out: Percent inhibition (% at 1 μM); for IC50: human PHD2, fluorescence polarization assay, 20-min incubation at 30° C.
Procedure, shortened: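 Enzyme from lysate of cells expressing human PHD2 (NM_022051), 40 ng/well, added to compound and 19-residue HIF-1α peptide substrate; 20 min at 30° C., EDTA quench. Prolyl hydroxylation detected by HIF-OH antibody binding via fluorescence polarization; inhibition relative to compound-free wells.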

human PHD2 [2] = molecular target: T1, human PHD2; experiment: Test 1: human PHD2 inhibitory activity, [14C]-2-oxoglutarate to [14C]-succinic acid radiometric assay with HIF-1α peptide; type: biochemical; details: read-out: Percent inhibition (% at 1 μM)
Description: (1) Expression and Preparation of Human PHD2
Human PHD2 was expressed in insect cells (HighFive cells). A registered sequence of human PHD2 (NM_022051) was introduced into the pFastBacl vector (Invitrogen), and the sequence was verified. The vector was introduced into Sf9 insect cells (Invitrogen) to acquire human PHD2 baculovirus. HighFive insect cells (Invitrogen) were infected with this recombinant virus and cultured at 27° C. for 72 hours; thereafter, a cell lysis solution containing various protease inhibitors was added and the cells were disrupted to form a suspension. The suspension of disrupted cells was centrifuged at 4° C. and 100,000×g for 30 minutes and the supernatant was recovered as a cell lysate.
(2) Measurement of Human PHD2 Inhibitory Activity
The activity of human PHD2 enzyme was measured with a substrate which is a 19-residue partial peptide based on the sequence of HIF-1α. Specifically, the conversion of 2-oxoglutarate to succinic acid which would occur simultaneously with the hydroxylation of a proline residue in the peptide with the PHD2 enzyme was utilized. To be more specific, [^14C]-2-oxogiutarate was added to the reaction system to initiate an enzymatic reaction and the [^14C]-2-oxoglutarate remaining after the reaction was bound to 2,4-dinitrophenylhydrazine (DNPH), with the resulting precipitate being removed by passage through a filter. Subsequently, radiation counting was conducted on the resulting [^14C]-succinic acid.
A test compound, HIF-1αpeptide and [^14C]-2-oxoglutarate were preliminarily added onto 96-well plates and reaction was initiated by adding a human PHD2 enzyme solution (4 μg/well). After 15-min incubation at 37° C., a DNPH-containing quench solution was added and the mixture was allowed to stand at room temperature for 30 minutes. Thereafter, an excess of non-radiolabelled 2-oxoglutarate was added and the mixture was allowed to stand at room temperature for 60 minutes. The resulting precipitate was removed by passage through a filter and the radiation count on the [^14C]-succinic acid was quantified (with MicroBeta). Radiation counting was conducted for each well and the human PHD2 inhibitory activity of each test compound was calculated on the basis of the values for the substrate-free group and the test compound-free group.

[3] = test compound's concentration 1 μM, Test 2, fluorescence polarization assay
[4] = test compound's concentration 1 μM, Test 1, [14C]-2-oxoglutarate radiometric assay

T1 sequence (Q9GZT9 whole entry): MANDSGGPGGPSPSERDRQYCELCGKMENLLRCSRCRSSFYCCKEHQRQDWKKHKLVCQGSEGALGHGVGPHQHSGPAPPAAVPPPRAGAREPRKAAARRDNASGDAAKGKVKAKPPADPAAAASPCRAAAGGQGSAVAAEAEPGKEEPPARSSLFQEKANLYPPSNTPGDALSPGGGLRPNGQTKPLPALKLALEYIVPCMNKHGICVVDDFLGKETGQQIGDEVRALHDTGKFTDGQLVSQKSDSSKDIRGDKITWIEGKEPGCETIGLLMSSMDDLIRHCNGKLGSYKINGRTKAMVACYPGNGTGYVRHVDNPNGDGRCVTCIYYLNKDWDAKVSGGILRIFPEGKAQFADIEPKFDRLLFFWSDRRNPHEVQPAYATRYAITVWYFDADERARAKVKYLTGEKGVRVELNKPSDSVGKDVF

| Structure (SMILES) | inhibition at 1 µM (human PHD2 [1]; [3]) [%] | inhibition at 1 µM (human PHD2 [2]; [4]) [%] | IC50 (human PHD2 [1]) [nM] | inhibition at 1 µM (human PHD2 [1]) [%] | inhibition at 1 µM (human PHD2 [2]) [%] |
| --- | --- | --- | --- | --- | --- |
| O=C(O)CNC(=O)C1=C(O)CCN(c2ccccc2)C1=O [Ex. 1-38] | 66 | 48 |  |  |  |
| CCOc1ccc(CN2CCC(O)=C(C(=O)NCC(=O)O)C2=O)cc1 [Ex. 1-71] | 85 | 81 |  |  |  |
| COc1ccc(CN2C(=O)C(C(=O)NCC(=O)O)=C(O)CC2(C)C)cc1F [Ex. 1-194] | 57 | 54 |  |  |  |
| O=C(O)CNC(=O)C1=C(O)CC2(CCCCC2)N(Cc2cnc(-c3ccccc3)s2)C1=O [Ex. 1-112] | 90 | 68 |  |  |  |
| CC(c1ccc(C(F)(F)F)cc1)N1CCC(O)=C(C(=O)NCC(=O)O)C1=O (stereo not drawn) [Ex. 1-146] | 70 | 69 |  |  |  |
| O=C(O)CNC(=O)C1=C(O)C2(CCOCC2)CN(Cc2ccc(C(F)(F)F)cc2)C1=O [Ex. 1-64] | 81 | 80 |  |  |  |
| O=C(O)CNC(=O)C1=C(O)CCN(Cc2cccc(OC(F)(F)F)c2)C1=O [Ex. 1-68] | 66 | 67 |  |  |  |
| COc1ccc(-c2ccc(CN3CCC(O)=C(C(=O)NCC(=O)O)C3=O)cc2)cc1 [Ex. 2-12] | 91 | 93 |  |  |  |
| CC(C)(C)c1ccc(CN2CCC(O)=C(C(=O)NCC(=O)O)C2=O)cc1 [Ex. 1-55] | 79 | 75 |  |  |  |
| O=C(O)CNC(=O)C1=C(O)CCN(Cc2ccc(Oc3ccc(Cl)cc3)cc2)C1=O [Ex. 1-265] | 100 | 98 | 24 |  |  |
| CC1CC(O)=C(C(=O)NCC(=O)O)C(=O)N1Cc1ccc(-c2ccc(C(F)(F)F)cc2)cc1 (stereo not drawn) [Ex. 1-100] | 84 | 64 |  |  |  |
| Cc1ccc(COc2ccc(CN3CCC(O)=C(C(=O)NCC(=O)O)C3=O)cc2)cc1 [Ex. 1-305] | 97 | 94 |  |  |  |
| O=C(O)CNC(=O)C1=C(O)CCN(Cc2ccc(-c3ccc(C(F)(F)F)nc3)cc2)C1=O [Ex. 2-21] | 93 | 88 |  |  |  |
| O=C(O)CNC(=O)C1=C(O)C2(CCCCC2)CN(Cc2ccc(C(F)(F)F)cc2)C1=O [Ex. 1-82] | 77 | 51 |  |  |  |
| O=C(O)CNC(=O)C1=C(O)CCN(Cc2ccc3c(c2)CCC3)C1=O [Ex. 1-269] | 89 | 85 |  |  |  |
| CC1CC(O)=C(C(=O)NCC(=O)O)C(=O)N1CC1CCC(c2ccccc2)CC1 (stereo not drawn) [Ex. 1-80] | 88 | 76 |  |  |  |
| CC1(C)CC(O)=C(C(=O)NCC(=O)O)C(=O)N1CC1CC(c2ccccc2)C1 (stereo not drawn) [Ex. 1-217] | 60 | 52 |  |  |  |
| O=C(O)CNC(=O)C1=C(O)CCN(Cc2ccc(Oc3ccc(F)cn3)cc2)C1=O [Ex. 1-288] | 91 | 90 | 146 |  |  |
| COc1ccc(CN2C(=O)C(C(=O)NCC(=O)O)=C(O)CC2(C)C)c(F)c1 [Ex. 1-193] | 57 | 67 |  |  |  |
| O=C(O)CNC(=O)C1=C(O)CC(Cc2ccccc2)N(Cc2ccc(-c3ccccc3)cc2)C1=O (stereo not drawn) [Ex. 1-75] | 84 | 54 |  |  |  |
| O=C(O)CNC(=O)C1=C(O)CCN(Cc2ccc3c(c2)OC(F)(F)O3)C1=O [Ex. 1-152] | 83 | 82 |  |  |  |
| O=C(O)CNC(=O)C1=C(O)C2(CCCCC2)CN(Cc2ccc3ccccc3c2)C1=O [Ex. 1-7] | 68 | 54 |  |  |  |
| CC1(C)CC(O)=C(C(=O)NCC(=O)O)C(=O)N1Cc1ccc(OCC2CC2)c(F)c1 [Ex. 1-204] | 79 | 69 |  |  |  |
| O=C(O)CNC(=O)C1=C(O)CCN(C2(c3ccc(-c4ccccc4)cc3)CC2)C1=O [Ex. 1-219] | 88 | 69 |  |  |  |
| Cc1ccc(Oc2ccc(CN3C(=O)C(C(=O)NCC(=O)O)=C(O)CC34CCC4)cn2)cc1 [Ex. 1-280] | 98 | 109 |  |  |  |
| O=C(O)CNC(=O)C1=C(O)CCN(Cc2ccc(C3CCCC3)cc2)C1=O [Ex. 3-1, N-{[1-(4-Cyclopentylbenzyl)-4-hydroxy-2-oxo-1,2,5,6-tetrahydropyridin-3-yl]carbonyl}glycine sodium salt] |  |  |  | 95 | 102 |

| Structure (SMILES) | inhibition at 1 µM (human PHD2 [1]; [3]) [%] | inhibition at 1 µM (human PHD2 [2]; [4]) [%] | IC50 (human PHD2 [1]) [nM] | inhibition at 1 µM (human PHD2 [1]) [%] | inhibition at 1 µM (human PHD2 [2]) [%] |
| --- | --- | --- | --- | --- | --- |
| O=C(O)CNC(=O)C1=C(O)CC2(CCC2)N(Cc2ccc(C(F)(F)F)cc2)C1=O [Ex. 1-122] | 76 | 65 |  |  |  |
| CN(C)S(=O)(=O)c1ccc(-c2ccc(CN3CCC(O)=C(C(=O)NCC(=O)O)C3=O)cc2)cc1 [Ex. 2-15] | 90 | 97 |  |  |  |
| COc1cccc(Oc2ccc(CN3CCC(O)=C(C(=O)NCC(=O)O)C3=O)cc2)c1 [Ex. 1-286] | 96 | 95 | 61 |  |  |
| O=C(O)CNC(=O)C1=C(O)CCN(Cc2ccc(-c3cccc(Cl)c3)cc2)C1=O [Ex. 2-22] | 94 | 95 |  |  |  |
| O=C(O)CNC(=O)C1=C(O)CC(CCc2ccccc2)N(Cc2ccc(-c3ccccc3)cc2)C1=O (stereo not drawn) [Ex. 1-76] | 79 | 40 |  |  |  |
| O=C(O)CNC(=O)C1=C(O)CCN(Cc2ccc(Cl)c(Cl)c2)C1=O [Ex. 1-67] | 89 | 84 |  |  |  |
| O=C(O)CNC(=O)C1=C(O)CCN(Cc2ccc(C(F)(F)F)c(C3CC3)c2)C1=O [Ex. 1-190] | 85 | 84 |  |  |  |
| Cc1cc(CN2C(=O)C(C(=O)NCC(=O)O)=C(O)CC2(C)C)ccc1OCC1CC1 [Ex. 1-199] | 75 | 65 |  |  |  |
| O=C(O)CNC(=O)C1=C(O)[C@@H]2CCCC[C@@H]2N(Cc2ccc(-c3ccccc3)cc2)C1=O [Ex. 1-51] | 73 | 58 |  |  |  |
| O=C(O)CNC(=O)C1=C(O)CC2(CCCC2)N(Cc2ccc(C(F)(F)F)cc2)C1=O [Ex. 1-156] | 80 | 70 |  |  |  |
| CC1CN(Cc2ccc(C(F)(F)F)cc2)C(=O)C(C(=O)NCC(=O)O)=C1O (stereo not drawn) [Ex. 1-103] | 82 | 76 |  |  |  |
| O=C(O)CNC(=O)C1=C(O)CC2(CCC2)N(Cc2ccc(Br)cc2)C1=O [Ex. 1-155] | 83 | 82 |  |  |  |
| O=C(O)CNC(=O)C1=C(O)CCN(CCc2cccc(C(F)(F)F)c2)C1=O [Ex. 1-173] | 78 | 64 |  |  |  |
| Cc1ccc(Oc2ccc(CN3CC4(CCC4)C(O)=C(C(=O)NCC(=O)O)C3=O)cn2)cc1 [Ex. 1-278] | 94 | 93 |  |  |  |
| Cc1ccc(CN2CC3(CCC3)C(O)=C(C(=O)NCC(=O)O)C2=O)cc1 [Ex. 1-90] | 63 | 58 |  |  |  |
| O=C(O)CNC(=O)C1=C(O)CCN(Cc2ccc(-c3ccccc3)c(F)c2)C1=O [Ex. 1-125] | 97 | 98 |  |  |  |
| CC(=O)c1ccc(-c2ccc(CN3CCC(O)=C(C(=O)NCC(=O)O)C3=O)cc2)cc1 [Ex. 2-16] | 93 | 102 |  |  |  |
| O=C(O)CNC(=O)C1=C(O)[C@@H]2CCCCC2N(Cc2ccc(-c3ccccc3)cc2)C1=O (stereo partly drawn) [Ex. 1-52] | 78 | 58 |  |  |  |
| O=C(O)CNC(=O)C1=C(O)CCN(Cc2cnc(C3CCCCC3)nc2)C1=O [Ex. 1-43] | 79 | 74 |  |  |  |
| O=C(O)CNC(=O)C1=C(O)C2(CC2)CN(Cc2ccc(Br)cc2)C1=O [Ex. 1-207] | 93 | 92 |  |  |  |
| CC1(C)CC(O)=C(C(=O)NCC(=O)O)C(=O)N1Cc1ccc(C2CCC2)cc1 [Ex. 1-211] | 79 | 76 |  |  |  |
| O=C(O)CNC(=O)C1=C(O)C2(CCOCC2)CN(Cc2ccc(-c3ccccn3)cc2)C1=O [Ex. 1-110] | 84 | 82 |  |  |  |
| O=C(O)CNC(=O)C1=C(O)CC2(CCOCC2)N(Cc2ccc(-c3ccccn3)cc2)C1=O [Ex. 1-105] | 83 | 78 |  |  |  |
| CC1(C)CC(O)=C(C(=O)NCC(=O)O)C(=O)N1Cc1ccc(C(F)(F)F)cc1 [Ex. 1-85] | 65 | 61 |  |  |  |
| CC(C)(C)c1ccc(-c2ccc(CN3CCC(O)=C(C(=O)NCC(=O)O)C3=O)cc2)cc1 [Ex. 1-36] | 85 | 83 |  |  |  |
